The values that follow come from patent US7429564B2, “Oral insulin therapy” (Emisphere Technologies, Inc., priority 2002, dated 2008).

A short description of data set [1]: Delivery agent plasma concentrations in humans after oral delivery agent capsules. The class given is in vivo, human. Conditions: plasma; oral capsules, 750 mg, healthy human volunteers. The protocol:
Delivery agents 1-3 were investigated for their ability to penetrate the GI mucosa. The plasma concentration of each delivery agent was measured in human subjects after oral administration of delivery agent loaded capsules as a measure of each delivery agent's penetration efficiency.
Blood sampling for plasma delivery agent concentration determination (2 mL in sodium heparin tube) were drawn 15 minutes before dosing, and at 5, 10, 15, 30, and 45 minutes and 1, 1.5, 2, 3, 4, 6, 8, and 12 hours post-dose (14 samples per treatment) for delivery agent measurements in all treatment groups.
Two 18-gauge IV lines were situated prior to dosing; one for blood sampling, and the other for potential infusion of 20% glucose for subjects in groups 2 and 3. The subjects in group 1 only had one cannula inserted. The blood samples were centrifuged at 3000 rpm for a period of fifteen minutes at a temperature from about 2° C. to 8° C., within one hour of sample collection. Using a plastic pipette and without disturbing the red cell layer, the plasma from the collection tube was pipetted in duplicate for each analysis, blood glucose, Human Insulin, C-peptide, delivery agent into pre-labeled polypropylene tubes. The samples were stored at −70° C. until analysis.
The indicated doses were ingested by healthy human volunteers and the plasma concentrations of the delivery agents were monitored over time and the area under the curve (AUC) calculated. […] Similarly, oral administration of 800 mg of delivery agent number 3 produced more than a 23 fold greater penetration of the GI mucosa in humans than did oral administration of 750 mg of delivery agent 2 having n equal to 9 alkyl.

In data set [2] the test system is serum glucose. In words: Effective clinical dose of delivery agent in humans (delivery efficiency). The class given is in vivo, human. Conditions: active agent heparin. The protocol:
Next, delivery agents 1-3 were compared for the ability to efficiently transport an active agent across the GI mucosa in a biologically active form by determining the relationship between delivery agent dose, dose of active agent and the glucose response. The effective dose of delivery agent necessary to deliver a therapeutic dose of active agent and produce a therapeutic effect was measured. For delivery agent 3, the active agent was insulin, and the therapeutic effect was determined by the ability of the delivery agent/insulin combination to lower serum glucose by at least 10% within one hour post administration. For delivery agents 1 and 2, the active agent was heparin, and the therapeutic effect was determined by […]

The nature of data set [3]: Delivery agent plasma concentrations in monkeys after oral administration. The class given is in vivo. Conditions: monkey, plasma, oral, 300 mg. The protocol: Similar results were obtained when delivery agents 1-3 were administered orally to monkeys and the plasma concentrations of the delivery agents monitored over time and the AUC calculated.
Data set [4] deals with blood glucose. In words: Example 7: postprandial blood glucose excursions after standardized breakfast, type 2 diabetic patients. The class given is in vivo, human.
Description: A randomized, 3-period crossover, double-blind, double-dummy study was conducted in order to compare the effect (i.e., the postprandial pharmacokinetic and pharmacodynamic profiles) of an oral insulin formulation with that of s.c. administered short acting insulin on postprandial blood glucose excursions in Type 2 Diabetic subjects without any antidiabetic medication.
All patients received the same oral and SC injection treatments in a randomized sequence. […]
Blood samples for blood glucose determination (0.25 mL per sample) were taken at −1 min (baseline), 5 minutes after start of meal intake and thereafter in 5 minute intervals until 120 minutes, 10 minute intervals until 240 minutes, and 15 minute intervals until 360 minutes after start of meal intake (45 samples per session). Blood glucose concentrations were measured immediately after sample collection using an automated GOD method (Super GL Ambulance Glucose Analyzer, Ruhrtal Labortechnik, Delecke-Möhnesee, Germany). […]
For pharmacodynamic assessment, the following parameters were calculated: Maximal blood glucose excursion (BGmax), time to BGmax (tBGmax) Area under the blood glucose excursion curve in defined time-intervals (AUCBG 0-1h, AUCBG 0-2h, AUCBG 0-3h, AUCBG 0-4h, AUCBG 0-6h), maximal absolute blood glucose concentrations (BGabsmax), time to BGabsmax (tBGabsmax). […]

Regarding `O=C(O)CCCCCCCNC(=O)c1ccccc1O` [1 (SNAC), reference compound], the exposure (AUC) – broadly, the area under the concentration-time curve, a measure of exposure – in data set [1] was determined as 3500 ng·h/mL; in data set [3], 45 ng·h/mL. Besides, the “Effective clinical dose of delivery agent” value in data set [2] turned out to be 2400 Mg.
Regarding `O=C(O)CCCCCCCCCNC(=O)c1ccccc1O` [2 (SNAD), reference compound], the AUC in data set [1] amounted to 2040 ng·h/mL; in data set [3] it was 82 ng·h/mL. In addition, the “Effective clinical dose of delivery agent” value in data set [2] was 1500 Mg.
“SC short-acting insulin: subcutaneous injected short acting insulin, Humalog injection 100 U/ml from Eli Lilly”: in data set [4] (12 U SC, dosed 15 min before meal, mean (range)), the “Mean fasting blood glucose at baseline (−1 minute)” value worked out at 143.11 mg/dL. Also, in data set [4] (SC 12 U, 15 min before meal), the “Time to maximal glucose excursion (median)” value was found to be 1.3 h.
